Key:
[1] = tested on: PPARG, FABP4, HSL, and LPL; test: Adipogenic gene expression (real-time PCR); format: cell-based, human; conditions: differentiated cells cotreated with 5 µM
Protocol: After treatment, RNA was extracted using the phenol/chloroform method (RNAzol, Sigma-Aldrich, Saint Louis, MO, USA) followed by isopropanol precipitation, according to the manufacturer’s instructions. The precipitated RNA was then washed with 75% ice-cold ethanol and resuspended in water. The RNA concentration was measured using NanoDrop 2000. cDNA was synthesized via reverse transcription using recombinant Moloney murine leukemia virus reverse transcriptase (MultiScribe Reverse Transcriptase, Bio-Rad, Hercules, CA, USA) and the iScript cDNA Synthesis Kit (Bio-Rad, Hercules, CA, USA). Gene expression was analyzed using real-time PCR using the SsoAdvanced Universal SYBR Green Supermix Kit (Bio-Rad, Hercules, CA, USA). Relative quantification was calculated using the ΔΔCt method.

INSRβ signaling in ADSCs = test: Insulin signaling Western blot / INSRβ immunoprecipitation; format: cell-based, human; conditions: 5 μM, 16 h
Protocol: (§1) After treatments, whole-cell lysates were prepared using RIPA lysis buffer supplemented with protease inhibitors (AEBSF, aprotinin, bestatin, E-64, EDTA, leupeptin, Sigma-Aldrich, Saint Louis, MO, USA) and orthovanadate (Sigma-Aldrich, Saint Louis, MO, USA). The proteins in the lysates were collected and quantified using the Pierce BCA protein assay kit (Thermo Fisher Scientific, Waltham, MA, USA). Subsequently, the proteins were denatured by heating at 95 °C for 5 min in the presence of 2% Sodium Dodecyl Sulfate (SDS, Sigma-Aldrich, Saint Louis, MO, USA), 150 mM dithiothreitol (DTT, Sigma-Aldrich, Saint Louis, MO, USA), and 0.01% bromophenol blue (Sigma-Aldrich, Saint Louis, MO, USA). The samples were then analyzed using SDS-PAGE (SDS-Polyacrylamide Gel Electrophoresis) and Western blotting (WB).
Following treatment, the cells were stimulated with insulin at 50 ng/mL for 15 min. For the immunoprecipitation of the insulin receptor beta subunit (INSRβ), cell lysates were prepared using RIPA lysis buffer with protease inhibitors, as described previously. The lysates were then incubated for 1 h with magnetic beads (Dynabeads Protein G, Thermo Fisher Scientific, Waltham, MA, USA) that had been previously bound to anti-INSRβ antibody, following the manufacturer’s instructions. After incubation, the beads were washed three times with RIPA buffer to remove non-specifically bound proteins. The immunoprecipitated proteins bound to the beads were then eluted by boiling the beads at 95 °C for 5 min in the presence of 2% SDS, 150 mM DTT, and 0.01% bromophenol blue. The eluted proteins were analyzed using SDS-PAGE and, subsequently, using WB.

INSRβ = INSRβ endocytosis assay and immunofluorescence localization; format: cell-based, human; conditions: 5 μM, 16 h; 15 min insulin stimulation
Protocol: ADSCs were seeded at a density of 100,000 cells/well in a 6-well plate. The protocol was carried out as described in Barrow-McGee et al., 2015 [33]. Cell surface proteins were labeled by incubating the cells with 0.2 mg/mL sulpho-NHS-SS-biotin (Sigma-Aldrich, Saint Louis, MO, USA) in PBS for 45 min on ice. Labeled cells were then washed with cold PBS and incubated at 37 °C in a culture medium containing insulin at 50 ng/mL to allow for INSR trafficking. At the indicated times, the medium was removed and the dishes were transferred to ice and washed with cold PBS. Biotin was removed from the proteins that remained at the cell surface via reduction for 15 min with 180 mM of the membrane-impermeant reducing agent MesNa (sodium 2 mercaptoethane sulphonate, Sigma-Aldrich, Saint Louis, MO, USA) in 50 mM Tris and 100 mM NaCl at pH 8.6. MesNa was quenched by adding 180 mM iodoacetamide (IAA, Sigma-Aldrich, Saint Louis, MO, USA) for 10 min. The cells were lysed using RIPA buffer as previously described. The proteins were quantified using BCA; equal protein amounts received streptavidin–agarose beads (Sigma-Aldrich, Saint Louis, MO, USA) and were agitated at 4 °C for 2 h. Then, the beads were collected via centrifugation (7000× g) and washed in lysis buffer, and the proteins were extracted by heating at 95 °C with sample buffer. In each internalization assay, two controls were carried out. To measure INSRβ at the surface, biotinylated cells at 4 °C were lysed without biotin reduction (Ts). To verify the efficiency of the surface biotin removal, the biotin reduction and MesNa-quenching steps were carried out on cells that had remained on ice (T0). Then, lysis was carried out. All lysates were analyzed via Western blot.
The percentages of internalized INSR were calculated using the following formula: internalized receptor = (receptor level after incubation at 37 °C) − (receptor level at time 0)/(total surface receptor) × 100. All samples were normalized on the input INSR signal.
For INSRβ endocytosis experiments, the cells were stimulated with 50 ng/mL insulin for 15 min. For transferrin endocytosis experiments, the cells were incubated with 25 μg/mL Transferrin Texas Red for 5 min. After treatment, the cells were washed with PBS and fixed with 4% PFA for 10 min at room temperature, followed by an additional PBS wash. The cells were then permeabilized by incubating them with cold HEPES-Triton X-100 buffer for 5 min at 4 °C. […] Images were acquired using a confocal microscope (Leica TCS SP8, Wetzlar, Germany) and analyzed using ImageJ (v 1.52a) software in order to quantify and analyze the fluorescence signals.

ADSCs [2] = test: Vacuolization assay; format: cell-based, human; conditions: 5 μM, 4 h
Protocol: After 4 h, pictures were acquired using a phase contrast microscope (DMi1, Leica, Wetzlar, Germany).

LC3B = test: Autophagy induction (LC3B Western blot, LAMP1/LC3B colocalization); format: cell-based, human; conditions: 16 h treatment
Protocol: as §1
(§2) For INSRβ endocytosis experiments, the cells were stimulated with 50 ng/mL insulin for 15 min. For transferrin endocytosis experiments, the cells were incubated with 25 μg/mL Transferrin Texas Red for 5 min. After treatment, the cells were washed with PBS and fixed with 4% PFA for 10 min at room temperature, followed by an additional PBS wash. The cells were then permeabilized by incubating them with cold HEPES-Triton X-100 buffer for 5 min at 4 °C. After permeabilization, the cells were incubated with primary antibodies for 30 min, followed by incubation with Alexa Fluor 488- or 546-conjugated secondary antibodies (Invitrogen, Waltham, MA, USA) and phalloidin, labeled with either Alexa Fluor 546 or 633 (Invitrogen Waltham, MA, USA) for 30 min. After incubation, coverslips were mounted on glass slides using a mounting medium. Images were acquired using a confocal microscope (Leica TCS SP8, Wetzlar, Germany) and analyzed using ImageJ (v 1.52a) software in order to quantify and analyze the fluorescence signals.

cathepsin B = test: Cathepsin B Western blot; format: cell-based, human; conditions: 5 μM, 16 h
Protocol: as §1

PKCζ = test: PKC activation (Western blot, P-PKCζ T560 immunofluorescence); format: cell-based, human; conditions: 5 μM, 16 h
Protocol: as §1, §2

3T3L1 cells = test: PA accumulation in cells transfected with DOCK2-Pii; format: cell-based, mouse; conditions: 5 μM, 16 h; compared to untreated controls
Protocol: Transfection was carried out using Lipofectamine 3000 (Thermo Fisher Scientific, Waltham, MA, USA), following the manufacturer’s instructions. The cells were incubated with the plasmid for 24 h to ensure successful transfection and plasmid expression and were used for experiments 48 h post-transfection.

ADSCs [3] = conditions: 7 days; 1 to 50 μM

Structure (SMILES): Cc1cc2c(s1)Nc1ccccc1N=C2N1CCN(C)CC1 [olanzapine]
- expression of genes related to adipogenesis (PPARG, FABP4, HSL, LPL) [1]: significantly reduced expression
- phosphorylated INSRβ serine residues (INSRβ signaling in ADSCs; basal and after insulin stimulation): increased levels
- INSRβ tyrosine phosphorylation (P-INSRβ Y1146) (INSRβ signaling in ADSCs; insulin 50 ng/mL): reduction
- P-AKT T308, P-AKT S473, and P-ERK T202/Y204 (INSRβ signaling in ADSCs; insulin 50 ng/mL): decrease
- INSRβ colocalization in LAMP1-positive lysosomes (INSRβ): unaffected
- INSRβ internalization (INSRβ): significant reduction
- INSRβ localization in CD63-positive recycling endosomes (INSRβ): reduced
- localization of INSRβ in RAB7-positive late endosomes (INSRβ): significantly increased localization
- vacuolization induction (ADSCs [2]): absent
- colocalization of LAMP1 with LC3B (LC3B): not observed
- conversion of LC3B-I to LC3B-II (LC3B): not after olanzapine
- levels of cathepsin B (cathepsin B): elevated levels
- canonical PKCs (cPKCs) and atypical PKCζ activation state (PKCζ; Western blot): activation
- increase in nuclear P-PKCζ T560 (PKCζ; immunofluorescence): 2 fold
- PA accumulation (3T3L1 cells): significant accumulation
- effects on cell viability (ADSCs [3]): negligible effects

— PMC11674800, “Second-Generation Antipsychotics Induce Metabolic Disruption in Adipose Tissue-Derived Mesenchymal Stem Cells Through an aPKC-Dependent Pathway” (Cells, 2024)
